This experiment concerns HCV pseudoparticles, genotype 1a (H77C) E1 and E2 envelope. The experiment is described as follows: HCV pseudoparticle infection assay (luciferase reporter, Huh7 cells). It is filed as cell-based, HCV genotype 1a (H77C). The note with it: Hepatitis C virus, Huh-7, 48 h, read-out: EC50 (nM) 1a (H77C), HCV pseudoparticles genotype 1a H77C, Huh7 cells, luciferase 2 days after infection. A general note: A reporter such as luciferase makes a cellular process visible.

Like-named read-outs stand apart in the source and are kept apart here.

Regarding `CN(C)C(=O)C(=O)NC[C@H](NC(=O)c1ccc2cc1OCCCCCCOc1ccc(cc1)CNc1nc(nc(OCC(F)(F)F)n1)N2)C(=O)O` [Example 1004], under “class symbol”, the concentration for a half-maximal effect (EC50) (commonly the concentration giving half of the maximal effect) was in the range of 0.1 to 100 nM.

As for `COC(=O)[C@H](CNC(=O)C(=O)N(C)C)NC(=O)c1ccc2cc1OCCCCCCOc1ccc(cc1)CNc1nc(nc(OCC(F)(F)F)n1)N2` [Example 1001], the concentration giving a half-maximal response (EC50) reads like this: (class symbol) 0.1 to 100 nM; (numeric value) 0.624 nM.

Consider `CNC(=O)C(=O)NC[C@H](NC(=O)c1ccc2cc1OCCCCCCOc1ccc(cc1)CNc1nc(nc(OCC(F)(F)F)n1)N2)C(=O)O` [Example 1005], for which the concentration giving a half-maximal response (EC50) (class symbol) lay in the range of 0.1 to 100 nM and the EC50 (numeric value) amounted to 2.47 nM.

Turning to `COC(=O)[C@H](CNC(=O)C(N)=O)NC(=O)c1ccc2cc1OCCCCCCOc1ccc(cc1)CNc1nc(nc(OCC(F)(F)F)n1)N2` [Example 1003], the 50% effective concentration (EC50) (class symbol) lay in the range of 0.1 to 100 nM.

As for `CNC(=O)C(=O)NC[C@H](NC(=O)c1ccc2cc1OCCCCCCOc1ccc(cc1)CNc1nc(nc(OCC(F)(F)F)n1)N2)C(=O)OC` [Example 1002], where the note is “class symbol”, the half-maximal effective concentration (EC50) was 0.1 to 100 nM.

Source of the values: patent US9745322B2, “Compounds for the treatment of hepatitis C” (priority 2013, dated 2017).
